US8754057B2, “Inhibition of apoptosis-specific eIF-5A(eIF-5A1″) with antisense oligonucleotides and siRNA as anti-inflammatory therapeutics” (Senesco Technologies, Inc., priority 2003, dated 2014)

Assays:
[1] = tested on: apoptosis-specific eIF-5A; experiment: Apoptosis-specific eIF-5A expression in U937 cells with PMA or LPS; format: cell-based, human
Description: (§1) U937 cells were collected and counted 16 hours after electroporation. 200,000 cells in 1 ml of media were added to each well of 24-well plates. Macrophage differentiation was stimulated by adding phorbol 12-myristate 13-acetate (PMA; 100 ng/ml). After 48 h with PMA., >80% of the monocytes had transformed from cells in suspension (monocytes) to adherent cells (macrophages). At 48 hours the media and any non-adherent cells were removed and fresh RPMI media with 10% FBS (1 ml per well) was added. The cells were left for 24 hours in fresh media to become quiescent.
72 hours after PMA addition to U937 cells, lipopolysaccharide (LPS; 100 ng/ml; from E. coli, serotype 0111), interferonγ (IFNγ; 100 Units/ml), or a combination of LPS and IFNγ were added to the wells. Samples were collected before stimulator addition (72h), and at various times after addition as outlined in FIG. 108. To collect samples for analysis of cytokine secretion, the media from each well was transferred to clean microcentrifuge tubes and cleared of any debris by centrifugation at 13000×g for 3 mins. The media was stored at −20° C. in 200-250 μl aliquots prior to analysis. […]
The protein concentration in the cell lysates was determined by bicinchoninic acid assays (BCA) with bovine serum albumin used as the standard. […]

U937 cells = experiment: Induction of macrophage differentiation in U937 cells; format: cell-based, human; details: 100 ng/ml PMA, 48 h
Description: as §1

[2] = tested on: lamina cribrosa cell line #506; format: cell-based, human; details: confluent LC cells, 48 hours; 50 μM camptothecin, 10 ng/ml TNF-α; Hoescht staining
Description: FIG. 83 is a graph showing percent apoptosis of lamina cribrosa cell line #506 in response to treatment with camptothecin and TNF-α. Lamina cribrosa cell line #506 cells were seeded at 40,000 cells per well onto an 8-well culture slide. Three days later the confluent LC cells were treated with either 10 ng/ml TNF-α, 50 μM camptothecin, or 10 ng/ml TNF-α plus 50 μM camptothecin. An equivalent volume of DMSO, a vehicle control for camptothecin, was added to the untreated control cells. The cells were stained with Hoescht 33258 48 hours after treatment and viewed by fluorescence microscopy using a UV filter. Cells with brightly stained condensed or fragmented nuclei were counted as apoptotic.
Apoptosis was induced in lamina cribrosa cells using a combination of 50 μM camptothecin (Sigma) and 10 ng/ml TNF-α (Leinco Technologies).
Since TNF-α is believed to play an important role during the glaucomatous process, the susceptibility of LC cells to the cytotoxic effects of TNF-α was examined. Confluent LC cells were exposed to either camptothecin, TNF-α, or a combination of camptothecin and TNF-α for 48 hours (FIG. 83).

[3] = tested on: apoptosis-specific eIF-5A; experiment: Apoptosis-specific eIF-5A expression in LC cells during camptothecin or TNF-α plus camptothecin treatment; format: cell-based, human; details: LC cells #506; 50 μM camptothecin, 10 ng/ml TNF-α; 1, 4, 8, 24 hours
Description: Lamina cribrosa cell #506 cells were seeded at 40,000 cells per well onto a 24-well plate. Three days later the LC cells were treated with either 50 μM camptothecin or 10 ng/ml TNF-α plus 50 μM camptothecin and protein lysate was harvested 1, 4, 8, and 24 hours later. An equivalent volume of DMSO was added to control cells as a vehicle control and cell lysate was harvested 1 and 24 hours later. 5 μg of protein from each sample was separated by SDS-PAGE, transferred to a PVDF membrane, and Western blot with anti-apoptosis-specific eIF-5A antibody. The bound antibody was detected by chemiluminescence and exposed to x-ray film. The membrane was then stripped and re-blotted with anti-β-actin as an internal loading control.
Protein was isolated for Western blotting from lamina cribrosa cells growing on 24-well plates by washing the cells twice in PBS (8 g/L NaCl, 0.2 g/L KCl, 1.44 g/L Na2HPO4, and 0.24 g/L KH2PO4) and then adding 50 μl of lysis buffer [2% SDS, 50 mM Tris-HCl (pH 7.4)]. The cell lysate was collected in a microcentrifuge tube, boiled for 5 minutes and stored at −20° C. until ready for use. Protein concentrations were determined using the Bicinchoninic Acid Kit (BCA; Sigma). For Western blotting, 5 μg of total protein was separated on a 12 SDS-polyacrylamide gel. The separated proteins were transferred to a polyvinylidene difluoride membrane. […]

corpus luteum = experiment: DNA laddering in rat corpus luteum after PGF-2α; format: in vivo; details: superovulated rat corpus lutea; 0, 1, or 24 hours after injection
Description: The degree of apoptosis was determined by DNA laddering. Genomic DNA was isolated from dispersed corpus lineal cells or from excised corpus luteum tissue using the QIAamp DNA Blood Kit (Qiagen) according to the manufacturer's instructions. Corpus luteum tissue was excised before the induction of apoptosis by treatment with PGF-2α, 1 hour and 24 hours after induction of apoptosis. The isolated DNA was end-labeled by incubating 500 ng of DNA with 0.2 μCi [α-^32P]dCTP, 1 mM Tris, 0.5 mM EDTA, 3 units of Klenow enzyme, and […] each of dATP, dGTP, and dTTP at room temperature for 30 minutes. Unincorporated nucleotides were removed by passing the sample through a 1 ml Sepadex G-50 column according to Sambrook et al. The samples were then resolved by Tris-acetate-EDTA (1.8%) gel electrophoresis. The gel was dried for 30 minutes at room temperature under vacuum and exposed to x-ray film at −80° C. for 24 hours.
In one experiment, the degree of apoptosis in superovulated rat corpus lutea was examined either 0, 1, or 24 hours after injection with PGF-2α. In the 0 hour control, the ovaries were removed without PGF-2α injection. […] In this figure, the top panel is an autoradiograph of the Northern blot probed with the ^32P-dCTP-labeled 3′-untranslated region of rat corpus luteum apoptosis-specific DHS cDNA. The lower panel is the ethidium bromide stained gel of total RNA. […]

[4] = tested on: apoptosis-specific eIF-5A and DHS; experiment: Northern blot of rat corpus luteum RNA after PGF-2α; format: in vivo
Description: […] of total RNA isolated from rat corpus luteum at various stages of apoptosis were separated on 1% denatured formaldehyde agarose gels and immobilized on nylon membranes. The full-length rat apoptosis-specific eIF-5A cDNA (SEQ ID NO:1) labeled with ^32P-dCTP using a random primer kit (Boehringer) was used to probe the membranes 7×10^7. Alternatively, full length rat DHS cDNA (SEQ ID NO:6) labeled with ^32P-dCTP using a random primer kit (Boehringer) was used to probe the membranes (7×10^7 cpm). The membranes were washed once with 1×SSC, 0.1% SDS at room temperature and three times with 0.2×SSC, 0.1% SDS at 65° C. The membranes were dried and exposed to X-ray film overnight at −70° C.

CCCCCCCCCCCCCC(=O)O[C@@H]1[C@@H](C)[C@@]2(O)[C@@H](C=C(CO)C[C@]3(O)C(=O)C(C)=C[C@@H]23)[C@@H]2C(C)(C)[C@]12OC(C)=O [PMA, phorbol 12-myristate 13-acetate]
apoptosis-specific eIF-5A expression [1]: upregulated | monocytes transformed from cells in suspension to adherent cells (macrophages) (U937 cells): > 80%

CC[C@@]1(O)C(=O)OCc2c1cc1n(c2=O)Cc2cc3ccccc3nc2-1 [camptothecin]
cell death of LC cells [2]: approximately 30% | expression of apoptosis-specific eIF-5A protein [3]: did not alter significantly

CCCCC[C@H](O)/C=C/[C@@H]1[C@@H](C/C=C\CCCC(=O)O)[C@@H](O)C[C@H]1O [PGF-2α]
laddering of low molecular weight DNA fragments (corpus luteum): discernible within 1 hour after induction of apoptosis and is pronounced by 24 hours | expression of DHS [4]: increased substantially within 1 hour of treatment | expression of apoptosis-specific eIF-5A [4]: significantly enhanced
